Measurements from patent US12456543B2, “Enzymes” (UNIVERSITY COURT OF THE UNIVERSITY OF ST ANDREWS, priority 2018, dated 2025).

Experiments:
[1] = system: tryptophan 5-halogenase PyrH; conditions: natural substrate tryptophan; based on product production; cited from earlier work
[2] = system: tryptophan 7-halogenase RebH; conditions: natural substrate tryptophan; based on product production; cited from earlier work
[3] = Halogenase activity of Dsg205 and Dsg701 against 600 member compound library, LC-MSMS assay; assay type: biochemical; conditions: substrate of Dsg205/Dsg701, enzyme not specified
[4] = system: Dsg407; experiment: Substrates accepted by Dsg407; conditions: purified Dsg407, NaBr or NaI, pH 7.2

SMILES | accepted as substrate by Dsg407 [4] | other results
N[C@@H](Cc1c[nH]c2ccccc12)C(=O)O [tryptophan] | – | Kcat [1]: 0.0417 ± 0.0067 s⁻¹; Km [2]: 18.7 ± 1.3 µM
Nc1cccc2cccnc12 [8-quinolamine] | – | conversion of substrate, estimated [3]: ~75%
N[C@H](Cc1c[nH]c2ccccc12)C(=O)O [D-tryptophan] | accepts | –
c1cc2cc[nH]c2cn1 [Dsg 6-azaindole, 6-azaindole] | also a substrate of Dsg407 | –
N[C@@H](Cc1c[nH]c2ccccc12)C(=O)O [L-tryptophan] | not | –
